Laboratory results: PubChem BioAssay (NCI)
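Interpolation was linear, between the two tested concentrations surrounding the appropriate level; five concentrations were tested over 48 hours in 96-well plates. GI50: concentration for 50% inhibition of growth. TGI denotes the concentration required for complete inhibition of growth.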

Tested on: MCF7 breast
Experiment: growth of human tumour cells (NCI), 48 h

Row | Compound | GI50 | TGI
1 | Cc1cc(S(=O)(=O)Nc2nnc(-c3ccccc3)c(-c3ccccc3)n2)c(SCC(N)=O)cc1Cl | 36.4 µM | > 100 µM
2 | COc1ccc(/C=C/c2ccnc3ccccc23)c(OC)c1 |  | > 10 µM
3 | Cc1ccc(C(=O)CN(/C=C/C(=O)C(F)(F)F)c2ccc(S(N)(=O)=O)cc2)cc1 | 59.8 µM | > 100 µM
4 | Clc1nc(Cl)c(Cl)c(-c2ccccc2)n1 |  | 48.7 µM
5 | COC(C(O)CO)C(O)C(O)C(=O)NNc1ccccc1 (stereo not drawn) |  | > 100 µM
6 | NS(=O)(=O)c1ccc(NC2(C(=O)O)CCCC2)cc1 |  | > 100 µM
7 | N=C1C(c2nc3ccccc3s2)=C(O)CN1c1cc(C(F)(F)F)ccc1Cl | 16.9 µM | 92.1 µM
8 | CCOC(=O)[C@@H](N)CCC(=O)N[C@@H](CSCc1ccccc1)C(=O)N[C@@H](C(=O)OCC)c1ccccc1 | 16.5 µM | 33.9 µM
9 | COc1ccc(Nc2c3ccccc3nc3occc23)cc1 | 0.682 µM | 36.1 µM
10 | COc1cc(/C=C/c2cc(/C=C/c3ccc(O)c(OC)c3)n(C(=O)Nc3ccc(F)c(Cl)c3)n2)ccc1O | 0.185 µM | 1.51 µM
11 | CCCCCCCC/C=C/CCCCCCCC(=O)OC[C@H]1O[C@@H](n2ccc(N)nc2=O)C(F)(F)[C@@H]1O | < 0.01 µM | > 100 µM
12 | NS(=O)(=O)c1ccc(N=Nc2c(O)[nH]c3ccc(-c4cnco4)cc23)cc1 | 11.8 µM | > 25 µM
13 | Clc1ccc(C2=Nn3c(COc4ccccc4Cl)nnc3SC2)c(Cl)c1 | 11 µM | > 100 µM
14 | COc1cc2c3c(n(CCCNC(=O)OCC4c5ccccc5-c5ccccc54)c(=O)c2cc1OC)-c1cc2c(cc1/C3=C\CCNC(=O)OCC1c3ccccc3-c3ccccc31)OCO2 |  | > 18.5 µM
15 | N#C/C(=C1C=C(Br)/C(=N\O)C=C\1Cl)c1cccc2ccccc12 |  | 28.6 µM
16 | COc1cc2nc3cc([N+](=O)[O-])ccc3c(NCCCNCCO)c2cc1OC | 0.12 µM | 0.626 µM
17 | COC(=O)[C@@H](C)CNS(=O)(=O)N(c1cc(C(F)(F)F)cc(C(F)(F)F)c1)C1CCN(Cc2ccc(F)cc2)CC1 | 6.91 µM | 21.9 µM
18 | C=C1C(=O)O[C@@H]2/C=C(\C)CC/C=C(/COC(C)=O)C[C@@H](OC(C)=O)[C@@H]12 |  | 17 µM
19 | COC(=O)[C@H](C)NC(=O)NC(=O)NC(=O)CI | 10.2 µM | 29.8 µM
20 | CN1C/C=C\CCOc2cccc(c2)-c2ccnc(n2)Nc2cccc(c2)C1 | 0.0354 µM | 1.23 µM
21 | C[C@@]12CC=C3c4nc(Nc5cccc(O)c5)sc4CC[C@]3(C)[C@H]1CC[C@]1(C)C(=O)CC[C@@H]21 | 1.85 µM | 4.43 µM
22 | CN1C(=O)c2cccc3cc([N+](=O)[O-])cc(c23)C1=O |  | > 10 µM
23 | Oc1ccccc1C(Sc1nc2ccccc2s1)Sc1nc2ccccc2s1 |  | > 100 µM
24 | COC1=C(C)C(=O)c2c(c(COC(N)=O)c3n2CC2C3N2C)C1=O (stereo not drawn) |  | < 0.027 µM
25 | COc1ccc(Cn2cc3c(c2-c2ccccc2)CC(C)(C)c2cnoc2-3)cc1 | 0.87 µM | > 100 µM
26 | CN1c2ccc(Cl)cc2C(=O)NC1c1ccc([N+](=O)[O-])s1 (stereo not drawn) |  | 44.6 µM
27 | c1cc(CNC23CC4CC(CC(C4)C2)C3)cc(C[N+](Cc2cccc(CNC34CC5CC(CC(C5)C3)C4)c2)(Cc2cccc(CNC34CC5CC(CC(C5)C3)C4)c2)Cc2cccc(CNC34CC5CC(CC(C5)C3)C4)c2)c1 (stereo not drawn) | 4.46 µM | 25.9 µM
28 | Oc1cccnc1CN1CCCCC1 |  | > 100 µM
29 | CN(C)C(=O)c1cc2cnc(Nc3ccc(-c4csc5c(=S)cc(N6CCOCC6)oc45)cc3)nc2n1C1CCCC1 | 0.235 µM | 2.44 µM
30 | COC1=CC(=O)c2nc(-c3cccc(C)n3)[nH]c2C1=O | 16.6 µM | 35.7 µM

Tested on: MDA-N
Experiment: growth of human tumour cells (NCI), 48 h

Row | Compound | TGI
31 | NCC1Nc2ccccc2[C@@H](O)C1O (stereo partly drawn) | > 100 µM
32 | OC[C@H]1CCCC1O (stereo partly drawn) | > 100 µM
33 | COc1ccc(/C=C/c2ccnc3ccccc23)c(OC)c1 | > 10 µM
34 | COC(C(O)CO)C(O)C(O)C(=O)NNc1ccccc1 (stereo not drawn) | > 100 µM
35 | NS(=O)(=O)c1ccc(NC2(C(=O)O)CCCC2)cc1 | > 100 µM
36 | CC(=O)CSCc1ccccn1 | > 100 µM
37 | N#C/C(=C1C=C(Br)/C(=N\O)C=C\1Cl)c1cccc2ccccc12 | 3.28 µM
38 | C=C1C(=O)O[C@@H]2/C=C(\C)CC/C=C(/COC(C)=O)C[C@@H](OC(C)=O)[C@@H]12 | 20.5 µM
39 | CN1C(=O)c2cccc3cc([N+](=O)[O-])cc(c23)C1=O | > 10 µM
40 | Oc1ccccc1C(Sc1nc2ccccc2s1)Sc1nc2ccccc2s1 | > 100 µM
41 | COC1=C(C)C(=O)c2c(c(COC(N)=O)c3n2CC2C3N2C)C1=O (stereo not drawn) | 0.136 µM
42 | CN1c2ccc(Cl)cc2C(=O)NC1c1ccc([N+](=O)[O-])s1 (stereo not drawn) | 31.7 µM
43 | Oc1cccnc1CN1CCCCC1 | > 100 µM

Tested on: SNB-78 CNS
Experiment: growth of human tumour cells (NCI), 48 h

Row | Compound | TGI
44 | COc1cc(C=C2C(=O)NC(=O)NC2=O)cc(OC)c1OC | > 100 µM
45 | Nn1c(=O)n(Cc2ccccc2)n(-c2ccccc2)c1=O | > 100 µM
46 | N#CCN1C(=O)c2cccc3cc([N+](=O)[O-])cc(c23)C1=O | > 100 µM
47 | O=C1CCN2C(=O)CCN12 | > 100 µM
48 | COc1ccccc1CCc1cc(OC)c(OC)c(OC)c1 | > 100 µM
49 | COc1cc2c(cc1OC)C(CC(=O)NN=C(C)C)NCC2 (stereo not drawn) | > 100 µM
50 | COC(=O)/C(=N\Nc1nnc(C)n1N)C(C#N)c1ccc(Cl)cc1 (stereo not drawn) | > 100 µM
51 | CS/C(N)=N\NC(=O)CCC(=O)Nc1ccccc1C(F)(F)F | > 100 µM
52 | O=C1OC(c2ccccc2)=N/C1=C\c1cccc2ccccc12 | > 100 µM

Tested on: DMS 273 small cell lung
Experiment: growth of human tumour cells (NCI), 48 h

Row | Compound | TGI
53 | CCOC(=O)C1=C(C)N(NC(=O)Nc2ccccc2)C(=O)C1=P(c1ccccc1)(c1ccccc1)c1ccccc1 | > 100 µM
54 | COc1cc(C=C2C(=O)NC(=O)NC2=O)cc(OC)c1OC | > 100 µM
55 | Nn1c(=O)n(Cc2ccccc2)n(-c2ccccc2)c1=O | > 100 µM
56 | N#CCN1C(=O)c2cccc3cc([N+](=O)[O-])cc(c23)C1=O | > 100 µM
57 | CC(C)C(Nc1c2ccccc2nc2ccccc12)C(=O)O (stereo not drawn) | > 100 µM
58 | COc1ccccc1CCc1cc(OC)c(OC)c(OC)c1 | > 100 µM
59 | COc1cc2c(cc1OC)C(CC(=O)NN=C(C)C)NCC2 (stereo not drawn) | > 100 µM
60 | COC(=O)/C(=N\Nc1nnc(C)n1N)C(C#N)c1ccc(Cl)cc1 (stereo not drawn) | > 100 µM
61 | CS/C(N)=N\NC(=O)CCC(=O)Nc1ccccc1C(F)(F)F | > 100 µM
62 | O=C1OC(c2ccccc2)=N/C1=C\c1cccc2ccccc12 | > 100 µM

Tested on: M19-MEL melanoma
Experiment: growth of human tumour cells (NCI), 48 h

Row | Compound | TGI
63 | CCOC(=O)C1=C(C)N(NC(=O)Nc2ccccc2)C(=O)C1=P(c1ccccc1)(c1ccccc1)c1ccccc1 | > 100 µM
64 | COc1cc(C=C2C(=O)NC(=O)NC2=O)cc(OC)c1OC | > 100 µM
65 | N#CCN1C(=O)c2cccc3cc([N+](=O)[O-])cc(c23)C1=O | 44.5 µM
66 | O=C1CCN2C(=O)CCN12 | > 100 µM
67 | CC(C)C(Nc1c2ccccc2nc2ccccc12)C(=O)O (stereo not drawn) | > 100 µM
68 | COc1ccccc1CCc1cc(OC)c(OC)c(OC)c1 | > 100 µM
69 | COc1cc2c(cc1OC)C(CC(=O)NN=C(C)C)NCC2 (stereo not drawn) | > 100 µM
70 | COC(=O)/C(=N\Nc1nnc(C)n1N)C(C#N)c1ccc(Cl)cc1 (stereo not drawn) | > 100 µM
71 | CS/C(N)=N\NC(=O)CCC(=O)Nc1ccccc1C(F)(F)F | > 100 µM
72 | O=C1OC(c2ccccc2)=N/C1=C\c1cccc2ccccc12 | > 100 µM

Tested on: KM20L2 colon
Experiment: growth of human tumour cells (NCI), 48 h

Row | Compound | TGI
73 | CCOC(=O)C1=C(C)N(NC(=O)Nc2ccccc2)C(=O)C1=P(c1ccccc1)(c1ccccc1)c1ccccc1 | > 100 µM
74 | COc1cc(C=C2C(=O)NC(=O)NC2=O)cc(OC)c1OC | > 100 µM
75 | N#CCN1C(=O)c2cccc3cc([N+](=O)[O-])cc(c23)C1=O | > 100 µM
76 | CC(C)C(Nc1c2ccccc2nc2ccccc12)C(=O)O (stereo not drawn) | > 100 µM
77 | COc1ccccc1CCc1cc(OC)c(OC)c(OC)c1 | > 100 µM
78 | COc1cc2c(cc1OC)C(CC(=O)NN=C(C)C)NCC2 (stereo not drawn) | > 100 µM
79 | COC(=O)/C(=N\Nc1nnc(C)n1N)C(C#N)c1ccc(Cl)cc1 (stereo not drawn) | > 100 µM
80 | CS/C(N)=N\NC(=O)CCC(=O)Nc1ccccc1C(F)(F)F | > 58.5 µM
